Tests used:
[1] = system: WT mice subjected to photothrombotic stroke in the motor cortex; experiment: Infarct volume after photothrombotic stroke, intranasal treatment; type: in vivo, mouse; conditions: intranasal C3a daily days 7-21 post-stroke vs PBS; P=0.429
Experimental: Cortical photothrombosis was induced using the Rose Bengal method (Lee et al., 2007; Watson et al., 1985) with some modifications. Anesthesia was induced with isoflurane (Forene®, Abbott) in air and oxygen (1:1) initially at 5% and reduced to 2.5% during the surgical procedure. Body temperature was monitored by a rectal probe and maintained at 37° C. using a homeothermic control unit (Harvard Apparatus). Anesthetized mice were placed in a stereotaxic frame, the skull was exposed through a midline scalp incision and Rose Bengal (200 μl, 10 mg/ml solution in sterile saline, Sigma) was injected intraperitoneally. […] Mice were provided with moist mashed food placed on the floor of the home cage and their weight was monitored daily for 7 days after surgery. […]
Purified human C3a peptide (Complement Technologies) was diluted in sterile phosphate buffered saline (PBS) to a concentration of 200 nM and a total of 20 μl (10 μl/nostril; corresponding to approximately 1.13 μg/kg body weight) of peptide solution or PBS was given intranasally to awake, hand-restrained mice held in a supine position. […] For the assessment of potential systemic anaphylactic response due to intranasal C3a inoculation, body temperature was monitored using a rectal temperature probe (Harvard Apparatus) inserted approximately 4 mm into the rectum of awake mice restrained by the scruff. […]

[2] = Body weight gain after neonatal HI and intranasal treatment; type: in vivo, mouse; conditions: across surgeries, treatments and genotypes
Source text: Unpaired t test was used to analyze the cue-induced fear conditioning experimental data. For the analysis of the total exploration time during the object recognition test and the open field experiment, one-way Analysis of Variance (ANOVA) was used, followed by a Tukey's multiple comparisons post-hoc test. Two-way ANOVA, with a Tukey's multiple comparisons post-hoc test, was used to analyze time spent exploring individual objects during the object recognition test, as well as the histomorphologic data and image analysis data. Two-way repeated measures ANOVA with a Tukey's multiple comparisons post-hoc test were used to analyze the body weight. Data are presented as mean±SEM. P values <0.05 were considered statistically significant.
To assess potential adverse effects of intranasal C3a administration on the overall animal health status and development, the inventors recorded animal weight gain across surgeries, treatments and different genotype conditions.

C3a: Purified human C3a peptide (Complement Technologies), C3a receptor agonist, amino acid sequence SEQ ID NO: 1
infarct volume [1]: no effect on infarct volume
body weight gain [2]: neither the surgery nor the C3a treatment affected body weight gain
